Earlier results on one compound are cited in US6156340A, “Orally administrable time release drug containing products” (Duquesne University of the Holy Ghost, priority 1996, dated 2000).

Assay in series [1]: not given
This is another data set of the same source.

For series [2] the following is noted: repeated oral administration, long term therapy.

As for `O=C(O)Cc1ccccc1Nc1c(Cl)cccc1Cl` [diclofenac sodium], the “water solubility” value is recorded as “high water solubility”. Also, in series [1] (following oral administration), the “absorption” value was “completely absorbed”. Besides, in series [1] (in vivo), the “metabolism” value is “extensive metabolism”. Besides, in series [1] (plasma), the “elimination half-life in plasma” value is recorded as “relatively short elimination half-life in plasma”. In addition, the “side effects” value in series [2] was “frequently causes gastrointestinal disturbances and may cause kidney failure”.
